“And” between values parts separate entries of the source, which are not always exact repeats. Equal values may be shown once. Marks after values point to notes of the source that are not given here. Non-standard residues stand in square brackets, D forms with d. Residues, ends and D or L forms follow the SMILES beside them. *: point of attachment. Asu = N[C@@H](CCCCCC(=O)O)C(=O)O; NHOH = ON*
Tests used:
HDAC1 [1] = biological target: T1, HDAC1 (Homo sapiens, UniProt Q13547); test: Recombinant HDAC µSPOT microarray binding assay;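 note: slides with spotted peptides incubated with six HDAC concentrations in HEPES buffer pH 7.4, spot intensities fitted by four-parameter logistic, EC50 as enzyme concentration giving half-maximal binding signal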
T1 construct: HDAC1 (full length, C-terminal His tag, C-terminal FLAG tag, BPS Bioscience, cat. #: 50051); FLAG (C); purchased BPS Bioscience 50051

HDAC3/NCoR2 [2] = biological target: T2, HDAC3/NCoR2 (Homo sapiens, UniProt O15379); test: Recombinant HDAC µSPOT microarray binding assay;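 note: peptide spots on cellulose slides incubated with rising HDAC enzyme concentrations, imaged together, four-parameter logistic fit, EC50 is enzyme concentration giving half-maximal binding signal, two experiments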
T2 construct: HDAC3/NCoR2 (full length, C-terminal His tag, NCoR2 N-terminal GST tag); purchased BPS Bioscience 50003

HDAC8 [3] = biological target: T3, HDAC8 (Homo sapiens, UniProt Q9BY41); test: Recombinant HDAC µSPOT microarray binding assay;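 note: peptide µSPOT slides incubated with varying HDAC enzyme concentrations, imaged signal intensity fitted by four-parameter variable-slope regression, EC50 is enzyme concentration giving half-maximal binding, pH 7.4 HEPES buffer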
T3 construct: HDAC8 (full length, C-terminal His tag, BPS Bioscience, cat. #: 50008); purchased BPS Bioscience 50008
T3 sequence (Q9BY41 1-377): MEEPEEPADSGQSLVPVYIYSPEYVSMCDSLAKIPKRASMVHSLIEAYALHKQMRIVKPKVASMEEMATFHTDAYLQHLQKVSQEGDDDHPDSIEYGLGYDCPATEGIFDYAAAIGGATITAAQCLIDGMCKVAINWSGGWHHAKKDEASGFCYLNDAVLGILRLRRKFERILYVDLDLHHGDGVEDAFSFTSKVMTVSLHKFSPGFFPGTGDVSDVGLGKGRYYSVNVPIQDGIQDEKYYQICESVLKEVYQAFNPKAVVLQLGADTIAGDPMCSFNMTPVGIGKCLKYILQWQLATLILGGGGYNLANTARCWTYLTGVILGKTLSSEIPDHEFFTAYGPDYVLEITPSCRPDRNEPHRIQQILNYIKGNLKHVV
Procedure: Experiments were performed twice, data were obtained with Array Analyze software (Active Motif), and data analysis and representation were performed with the GraphPad Prism 7 software. Outliers were curated manually and data were fitted to nonlinear regression [log(agonist) vs. response—variable slope (four parameters)]. […] Non-sigmoidal curves were denoted as not determined (N.D.) The pEC50 values were determined as the concentration of HDAC enzyme required for half-maximal binding signal.

HDAC1 [4] = biological target: T1, HDAC1; test: HDAC inhibition assay (fluorogenic, Ac-Leu-Gly-Lys(Ac)-AMC); assay type: biochemical; settings: for HDAC1 dose-response data (relative enzyme activity), Fig. 6 + S. Fig. 10: duplicate columns
HDAC2 = biological target: T4, HDAC2 (Homo sapiens, UniProt Q92769); test: as above; assay type: biochemical; settings: for HDAC2 dose-response data (relative enzyme activity), Fig. 6 + S. Fig. 10: duplicate columns
T4 construct: HDAC2 (full length, C-terminal His tag, BPS Bioscience, cat. #: 50002); purchased BPS Bioscience 50002

HDAC3/NCoR2 [5] = biological target: T2, HDAC3/NCoR2; test: as above; assay type: biochemical; settings: for HDAC3 dose-response data (relative enzyme activity), Fig. 6 + S. Fig. 10: duplicate columns
HDAC8 [6] = biological target: T3, HDAC8; test: HDAC inhibition assay (fluorogenic, Ac-Leu-Gly-Lys(Tfa)-AMC); assay type: biochemical; settings: for HDAC8 dose-response data (relative enzyme activity, replicate values), Fig. 6 + S. Fig. 10: two replicate columns per inhibitor; for HDAC8 dose-response data (relative enzyme activity), Fig. 6 + S. Fig. 10: duplicate columns
HDAC4 = biological target: T5, HDAC4 (Homo sapiens, UniProt P56524); test: as above; assay type: biochemical; settings: 2 internal replicates
T5 construct: purchased BPS Bioscience 50004

[7] = log[inhibitor(M)] -10,5850266520292*, whole line marked with asterisks

T4 sequence (Q92769 whole entry): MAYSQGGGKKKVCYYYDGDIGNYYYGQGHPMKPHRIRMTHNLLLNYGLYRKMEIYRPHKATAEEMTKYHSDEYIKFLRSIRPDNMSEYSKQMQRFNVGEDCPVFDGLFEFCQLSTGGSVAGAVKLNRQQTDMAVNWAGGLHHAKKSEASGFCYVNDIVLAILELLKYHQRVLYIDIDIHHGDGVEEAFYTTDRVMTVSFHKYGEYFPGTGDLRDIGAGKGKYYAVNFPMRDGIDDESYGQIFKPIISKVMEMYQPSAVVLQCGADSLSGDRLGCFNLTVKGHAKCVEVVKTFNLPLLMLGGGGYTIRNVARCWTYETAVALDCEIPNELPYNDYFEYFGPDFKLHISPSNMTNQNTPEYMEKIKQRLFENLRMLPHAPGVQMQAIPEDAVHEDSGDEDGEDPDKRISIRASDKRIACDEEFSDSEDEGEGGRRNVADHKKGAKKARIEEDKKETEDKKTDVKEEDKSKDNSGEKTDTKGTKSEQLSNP
T5 sequence (P56524 627-1084): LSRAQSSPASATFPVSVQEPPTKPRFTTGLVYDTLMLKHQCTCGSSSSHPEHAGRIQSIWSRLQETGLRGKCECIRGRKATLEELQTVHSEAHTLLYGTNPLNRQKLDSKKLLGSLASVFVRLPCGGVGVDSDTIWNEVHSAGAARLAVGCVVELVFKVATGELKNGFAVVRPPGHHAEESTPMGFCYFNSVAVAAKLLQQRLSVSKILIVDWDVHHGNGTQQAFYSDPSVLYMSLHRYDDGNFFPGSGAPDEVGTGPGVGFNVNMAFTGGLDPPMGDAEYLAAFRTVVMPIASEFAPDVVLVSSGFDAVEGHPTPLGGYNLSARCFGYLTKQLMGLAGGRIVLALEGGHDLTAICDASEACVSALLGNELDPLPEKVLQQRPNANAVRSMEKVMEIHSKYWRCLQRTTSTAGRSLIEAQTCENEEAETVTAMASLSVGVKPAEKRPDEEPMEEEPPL
T2 sequence (O15379 whole entry): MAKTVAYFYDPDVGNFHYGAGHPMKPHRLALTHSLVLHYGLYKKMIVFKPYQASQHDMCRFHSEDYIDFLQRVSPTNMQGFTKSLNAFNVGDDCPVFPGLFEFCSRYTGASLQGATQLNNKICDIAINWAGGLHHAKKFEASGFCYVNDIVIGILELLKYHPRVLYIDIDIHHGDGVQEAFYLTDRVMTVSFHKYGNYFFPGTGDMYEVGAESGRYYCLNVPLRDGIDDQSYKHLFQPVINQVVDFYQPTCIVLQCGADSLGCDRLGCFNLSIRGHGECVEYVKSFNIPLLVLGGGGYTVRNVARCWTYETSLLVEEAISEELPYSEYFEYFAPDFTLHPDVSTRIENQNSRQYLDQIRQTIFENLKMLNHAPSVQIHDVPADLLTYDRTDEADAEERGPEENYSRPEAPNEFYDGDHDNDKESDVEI
T2 sequence (Q9Y618 389-480 partner limits assumed): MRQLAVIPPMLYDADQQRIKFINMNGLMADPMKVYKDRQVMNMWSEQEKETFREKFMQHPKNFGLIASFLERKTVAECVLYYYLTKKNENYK
T1 sequence (Q13547 whole entry): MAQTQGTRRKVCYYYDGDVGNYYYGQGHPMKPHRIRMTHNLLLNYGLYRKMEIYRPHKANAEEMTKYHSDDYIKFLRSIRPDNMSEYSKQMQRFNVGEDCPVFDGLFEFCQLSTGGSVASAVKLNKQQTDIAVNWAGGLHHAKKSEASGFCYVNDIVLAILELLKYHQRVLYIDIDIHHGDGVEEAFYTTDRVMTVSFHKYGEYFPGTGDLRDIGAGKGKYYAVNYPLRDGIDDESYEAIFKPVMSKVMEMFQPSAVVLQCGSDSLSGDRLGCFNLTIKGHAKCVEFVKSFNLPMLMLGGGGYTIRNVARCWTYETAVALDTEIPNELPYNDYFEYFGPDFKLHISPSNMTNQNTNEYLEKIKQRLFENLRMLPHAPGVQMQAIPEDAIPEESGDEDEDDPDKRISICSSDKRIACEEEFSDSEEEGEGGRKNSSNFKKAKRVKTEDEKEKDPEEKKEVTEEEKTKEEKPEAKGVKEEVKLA

SMILES: CC(=O)NCC(=O)NCC(=O)N[C@@H](CCCCCC(=O)NO)C(=O)N[C@@H](C)C(=O)N[C@@H](CCCNC(=N)N)C(=O)N[C@@H](C)C(=O)N[C@@H](CCCCN)C(=O)N[C@@H](C)C(=O)N[C@@H](CCCCN)C(=O)N[C@H](C(=O)N[C@@H](CCCNC(=N)N)C(=O)N[C@@H](CO)C(=O)N[C@@H](CO)C(=O)N[C@@H](CCCNC(=N)N)C(=O)N[C@@H](C)C(=O)NCC(=O)N[C@@H](Cc1c[nH]c2ccccc12)C(N)=O)[C@@H](C)O [9a] (Ac-GG[Asu](NHOH)ARAKAKTRSSRAGW-NH2)
- EC50 (HDAC1 [1]): > 25.1 nM
- EC50 (HDAC3/NCoR2 [2]): 6.03 nM
- EC50 (HDAC8 [3]): > 25.1 nM
- Ki (HDAC1 [4]): 31.1 ± 0.2 nM
- HDAC1 dose-response data (relative enzyme activity), Fig. 6 + S. Fig. 10 (HDAC1 [4]; log[inhibitor(M)] -5.69897): 7.627 and 13.3733
- HDAC1 dose-response data (relative enzyme activity), Fig. 6 + S. Fig. 10 (HDAC1 [4]; log[inhibitor(M)] -6.39794): 29.353 and 31.2435
- HDAC1 dose-response data (relative enzyme activity), Fig. 6 + S. Fig. 10 (HDAC1 [4]; log[inhibitor(M)] -7.09691): 58.5172 and 64.5613
- HDAC1 dose-response data (relative enzyme activity), Fig. 6 + S. Fig. 10 (HDAC1 [4]; log[inhibitor(M)] -7.79588): 95.7003 and 88.0669
- HDAC1 dose-response data (relative enzyme activity), Fig. 6 + S. Fig. 10 (HDAC1 [4]; log[inhibitor(M)] -8.49485): 105.543 and 108.963
- HDAC1 dose-response data (relative enzyme activity), Fig. 6 + S. Fig. 10 (HDAC1 [4]; log[inhibitor(M)] -9.19382): 98.3062 and 98.503
- HDAC1 dose-response data (relative enzyme activity), Fig. 6 + S. Fig. 10 (HDAC1 [4]; log[inhibitor(M)] -9.89279): 101.14 and 97.4578
- HDAC1 dose-response data (relative enzyme activity), Fig. 6 + S. Fig. 10 (HDAC1 [4]; [7]): 103,131* and 101,221*
- HDAC2 dose-response data (relative enzyme activity), Fig. 6 + S. Fig. 10 (HDAC2; log[inhibitor(M)] -5): 5.281 and 8.057
- HDAC2 dose-response data (relative enzyme activity), Fig. 6 + S. Fig. 10 (HDAC2; log[inhibitor(M)] -5.69897): 15.9037 and 16.112
- HDAC2 dose-response data (relative enzyme activity), Fig. 6 + S. Fig. 10 (HDAC2; log[inhibitor(M)] -7.79588): 105.562 and 90.7957
- HDAC2 dose-response data (relative enzyme activity), Fig. 6 + S. Fig. 10 (HDAC2; [7]): 99,9428* and 99,2519*
- Ki (HDAC2; resynthesized peptide in solution, Cheng-Prusoff, n = 2): 48 ± 0.5 nM
- Ki (HDAC3/NCoR2 [5]): 7.66 ± 0.07 nM
- HDAC3 dose-response data (relative enzyme activity), Fig. 6 + S. Fig. 10 (HDAC3/NCoR2 [5]; log[inhibitor(M)] -4.30103): 0.3821 and 0.6391
- HDAC3 dose-response data (relative enzyme activity), Fig. 6 + S. Fig. 10 (HDAC3/NCoR2 [5]; log[inhibitor(M)] -5): 2.293 and 2.409
- HDAC3 dose-response data (relative enzyme activity), Fig. 6 + S. Fig. 10 (HDAC3/NCoR2 [5]; log[inhibitor(M)] -5.69897): 8.406 and 7.571
- HDAC3 dose-response data (relative enzyme activity), Fig. 6 + S. Fig. 10 (HDAC3/NCoR2 [5]; log[inhibitor(M)] -6.39794): 24.6725 and 18.9774
- HDAC3 dose-response data (relative enzyme activity), Fig. 6 + S. Fig. 10 (HDAC3/NCoR2 [5]; log[inhibitor(M)] -7.09691): 37.2271 and 35.3982
- HDAC3 dose-response data (relative enzyme activity), Fig. 6 + S. Fig. 10 (HDAC3/NCoR2 [5]; log[inhibitor(M)] -7.79588): 64.8472 and 61.8977
- HDAC3 dose-response data (relative enzyme activity), Fig. 6 + S. Fig. 10 (HDAC3/NCoR2 [5]; log[inhibitor(M)] -8.49485): 94.5961 and 96.0669
- HDAC3 dose-response data (relative enzyme activity), Fig. 6 + S. Fig. 10 (HDAC3/NCoR2 [5]; log[inhibitor(M)] -9.19382): 98.4716 and 100.59
- HDAC3 dose-response data (relative enzyme activity), Fig. 6 + S. Fig. 10 (HDAC3/NCoR2 [5]; log[inhibitor(M)] -9.89279): 99.7271 and 104.621
- HDAC3 dose-response data (relative enzyme activity), Fig. 6 + S. Fig. 10 (HDAC3/NCoR2 [5]; [7]): 100,6* and 100,492*
- Ki (HDAC8 [6]): 5.57 ± 0.13 µM
- HDAC8 dose-response data (relative enzyme activity, replicate values), Fig. 6 + S. Fig. 10 (HDAC8 [6]; Inhibitor conc [M] -8.49485 (log)): 101.387 and 98.0647
- HDAC8 dose-response data (relative enzyme activity, replicate values), Fig. 6 + S. Fig. 10 (HDAC8 [6]; Inhibitor conc [M] -9.19382 (log)): 105.308 and 102.184
- HDAC8 dose-response data (relative enzyme activity, replicate values), Fig. 6 + S. Fig. 10 (HDAC8 [6]; Inhibitor conc [M] given as -7.09691 (log)): 100.377 and 94.2492
- HDAC8 dose-response data (relative enzyme activity, replicate values), Fig. 6 + S. Fig. 10 (HDAC8 [6]; Inhibitor conc [M] given as -7.79588 (log)): 101.512 and 95.1709
- HDAC8 dose-response data (relative enzyme activity, replicate values), Fig. 6 + S. Fig. 10 (HDAC8 [6]; Inhibitor conc [M] given as -9.89279 (log)): 102.446 and 100.014
- HDAC8 dose-response data (relative enzyme activity, replicate values), Fig. 6 + S. Fig. 10 (HDAC8 [6]; Inhibitor conc [M] given as -10.585 (log)): 102,003* and 99,4628*
- HDAC8 dose-response data (relative enzyme activity), Fig. 6 + S. Fig. 10 (HDAC8 [6]; Inhibitor conc [M] -4.30103): 8.643 and 13.2074
- HDAC8 dose-response data (relative enzyme activity), Fig. 6 + S. Fig. 10 (HDAC8 [6]; Inhibitor conc [M] -5): 41.9349 and 42.6215
- HDAC8 dose-response data (relative enzyme activity), Fig. 6 + S. Fig. 10 (HDAC8 [6]; Inhibitor conc [M] -5.69897): 76.1615 and 76.0658
- HDAC8 dose-response data (relative enzyme activity), Fig. 6 + S. Fig. 10 (HDAC8 [6]; Inhibitor conc [M] -6.39794): 95.4429 and 93.9691
- residual enzymatic activity relative to control wells (HDAC4; inhibitor 5 µM): 94.96
- remaining activity at 5 µM (HDAC4; inhibitor 5 µM, read-out: residual enzymatic activity relative to control wells): 97.8%
- residual enzymatic activity relative to control wells (HDAC4; inhibitor 50 µM): 54.4
- remaining activity at 50 µM (HDAC4; inhibitor 50 µM, read-out: residual enzymatic activity relative to control wells): 57.5%

Reference: article PMC7782793, “Hydroxamic acid-modified peptide microarrays for profiling isozyme-selective interactions and inhibition of histone deacetylases” (Nature Communications, 2021)
